# Calls of active or inactive are those of the source. The calls are words filed in the database; no cut-off is given here.
# What was measured:
# ST-13 [1] = assay: Induction of adiponectin secretion in mouse ST-13 cells after 11 days by ELISA; type: functional, cell-based
# ST-13 [2] = assay: Induction of preadipocyte differentiation in mouse ST-13 cells assessed as lipid accumulation at 5 uM within 11 days by oil red-staining relative to control; type: functional, cell-based
# ST-13 [3] = assay: Induction of adiponectin protein secretion in mouse ST-13 cells assessed as adiponectin mRNA level after 11 days by semi-quantitative RT-PCR; type: functional, cell-based
# ST-13 [4] = assay: Induction of preadipocyte differentiation in mouse ST-13 cells assessed as triglyceride accumulation after 11 days by Fletcher's method; type: functional, cell-based
# ST-13 [5] = assay: Induction of preadipocyte differentiation in mouse ST-13 cells assessed as lipid accumulation at 10 uM within 11 days by oil red-staining relative to control; type: functional, cell-based
# [6] = molecular target: T1, Peroxisome proliferator-activated receptor gamma (Homo sapiens) (UniProt P37231); assay: Agonist activity at Gal4-fused human PPARgamma expressed in african green monkey COS1 cells at 30 uM by luciferase reporter gene assay; type: functional, cell-based; settings: COS-1
# T1 sequence (whole entry): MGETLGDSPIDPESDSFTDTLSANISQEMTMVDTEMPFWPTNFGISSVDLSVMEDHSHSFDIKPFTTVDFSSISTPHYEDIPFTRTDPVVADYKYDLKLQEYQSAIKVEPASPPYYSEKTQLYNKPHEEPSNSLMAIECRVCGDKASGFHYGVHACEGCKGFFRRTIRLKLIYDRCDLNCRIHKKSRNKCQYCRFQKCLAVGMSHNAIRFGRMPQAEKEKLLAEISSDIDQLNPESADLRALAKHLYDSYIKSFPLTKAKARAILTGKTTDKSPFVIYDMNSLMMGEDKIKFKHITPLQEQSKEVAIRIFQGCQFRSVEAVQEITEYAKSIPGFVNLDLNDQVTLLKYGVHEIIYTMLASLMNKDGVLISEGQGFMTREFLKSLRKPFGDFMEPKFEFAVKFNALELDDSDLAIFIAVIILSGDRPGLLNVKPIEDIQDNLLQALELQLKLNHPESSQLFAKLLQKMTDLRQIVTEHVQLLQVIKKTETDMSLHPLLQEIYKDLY
# ST-13 [7] = assay: Induction of adipocyte differentiation in mouse ST-13 cells assessed as stimulation of adipsin mRNA expression at 0.1 to 30 uM within 11 days by semi-quantitative RT-PCR; type: functional, cell-based
# [8] = Induction of adiponectin secretion in mouse ST-13 cells at 10 uM after 11 days by ELISA relative to control; type: functional
# ST-13 [9] = assay: Induction of adipocyte differentiation in mouse ST-13 cells assessed as stimulation of adipocyte P2 mRNA expression at 0.1 to 30 uM within 11 days by semi-quantitative RT-PCR; type: functional, cell-based
# ST-13 [10] = assay: Induction of adipocyte differentiation in mouse ST-13 cells assessed as increase in PPARgamma2 mRNA level after 11 days by semi-quantitative RT-PCR relative to control; type: functional, cell-based
Compound,Activity (ST-13 [1]),Activity (ST-13 [2]),Activity (ST-13 [3]),Activity (ST-13 [4]),Activity (ST-13 [5]),Activity [6],Activity (ST-13 [7]),Activity [8] [%],Activity (ST-13 [9]),Activity (ST-13 [10])
COc1ccc(-c2cc(=O)c3c(OC)cc(OC)c(OC)c3o2)cc1,Active,–,–,–,–,–,–,–,–,–
Cc1c(C)c2c(c(C)c1O)CCC(C)(COc1ccc(CC3SC(=O)NC3=O)cc1)O2 (stereo unspecified),–,Active,–,–,–,–,–,–,–,–
COc1ccc(-c2cc(=O)c3c(OC)c(OC)c(OC)c(OC)c3o2)cc1OC [NOBILETIN],Dose-dependent effect,–,Dose-dependent effect,Dose-dependent effect,Active,inactive,Active,340,Active,Active

# Reference: ChEMBL document CHEMBL1158405, “Identification of nobiletin, a polymethoxyflavonoid, as an enhancer of adiponectin secretion” (2009)
